According to ChEMBL document CHEMBL1201862, “PubChem BioAssay data set” (2004):
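Protocol summary: plate cells (96-well), add compound at 5 concentrations, incubate 48 h, interpolate endpoints linearly. GI50 = concentration required for 50% inhibition of growth.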 The source made the active and inactive calls. Rule as the data show it: active = GI50 up to about 1.1 µM and inactive = higher. Where a SMILES comes first, the peptide text is derived from it. The star is where a group is joined. Cbz = O=C(OCc1ccccc1)*; OBn = c1ccc(CO*)cc1

Tests used:
Experiment in all cases: inhibition of tumour cell growth, NCI panel, 48 h
HT-29 = tested on: HT-29
TK-10 = tested on: TK-10
UACC-62 = tested on: UACC-62
SNB-19 = tested on: SNB-19
NCI-H23 = tested on: NCI-H23
MDA-MB-435 = tested on: MDA-MB-435
UO-31 = tested on: UO-31
OVCAR-8 = tested on: OVCAR-8
CCRF-CEM = tested on: CCRF-CEM
SN12C = tested on: SN12C
A498 = tested on: A498
HCT-116 = tested on: HCT-116
SK-OV-3 = tested on: SK-OV-3
ACHN = tested on: ACHN
NCI-H522 = tested on: NCI-H522
MCF7 = tested on: MCF7
SF-295 = tested on: SF-295
RXF 393 = tested on: RXF 393
RPMI-8226 = tested on: RPMI-8226
Hs-578T = tested on: Hs-578T

| SMILES | GI50 (HT-29) | GI50 (TK-10) | GI50 (UACC-62) | GI50 (SNB-19) | GI50 (NCI-H23) | GI50 (MDA-MB-435) | GI50 (UO-31) | GI50 (OVCAR-8) | GI50 (CCRF-CEM) | GI50 (SN12C) | GI50 (A498) | GI50 (HCT-116) | GI50 (SK-OV-3) | GI50 (ACHN) | GI50 (NCI-H522) | GI50 (MCF7) | GI50 (SF-295) | GI50 (RXF 393) | GI50 (RPMI-8226) | GI50 (Hs-578T) |
| --- | --- | --- | --- | --- | --- | --- | --- | --- | --- | --- | --- | --- | --- | --- | --- | --- | --- | --- | --- | --- |
| NC(=S)C1=C(N)Oc2c(c(=O)oc3ccccc23)C1c1ccc(Br)cc1 (stereo not given) | > 100 µM (inactive) | > 100 µM (inactive) | > 100 µM (inactive) | > 100 µM (inactive) | > 100 µM (inactive) | > 100 µM (inactive) | > 100 µM (inactive) | > 100 µM (inactive) | 36.3 µM (inactive) | > 100 µM (inactive) | 63.2 µM (inactive) | > 100 µM (inactive) | > 100 µM (inactive) | > 100 µM (inactive) | 74.8 µM (inactive) | > 100 µM (inactive) | > 100 µM (inactive) |  |  |  |
| O=C(CSc1nnc(Cc2ccccc2)o1)Nc1ccc(Cl)cc1Cl | > 100 µM (inactive) | > 100 µM (inactive) | > 100 µM (inactive) | > 100 µM (inactive) | > 100 µM (inactive) |  | > 100 µM (inactive) | > 100 µM (inactive) | > 100 µM (inactive) | > 100 µM (inactive) | > 100 µM (inactive) | > 100 µM (inactive) | > 100 µM (inactive) | > 100 µM (inactive) | > 100 µM (inactive) |  | > 100 µM (inactive) | > 100 µM (inactive) | > 100 µM (inactive) |  |
| Nc1nncc2c1c(Br)cn2C1OC(CO)C(O)C1O (stereo not given) | 8.39 µM (inactive) | 51.4 µM (inactive) | 56.9 µM (inactive) | 64.3 µM (inactive) | 10.9 µM (inactive) |  | > 37.9 µM (inactive) | 1.49 µM (inactive) | 2.33 µM (inactive) | 5.3 µM (inactive) | > 67.6 µM (inactive) | 9.68 µM (inactive) | > 96.6 µM (inactive) | 15.1 µM (inactive) | 31.3 µM (inactive) |  | 39.6 µM (inactive) | 30.8 µM (inactive) | 10.2 µM (inactive) |  |
| CC(C)(C)N/N=C(\C(=O)NC1=C(Cl)C(=O)c2ccccc2C1=O)C1C=CCS1(=O)=O (stereo not given) | 14.4 µM (inactive) | 38.9 µM (inactive) | 3.3 µM (inactive) | > 100 µM (inactive) | 8.15 µM (inactive) |  | 16.8 µM (inactive) | 19.8 µM (inactive) | > 100 µM (inactive) | 15.1 µM (inactive) | 21.2 µM (inactive) | 15.5 µM (inactive) | > 100 µM (inactive) | 16.1 µM (inactive) | 12.5 µM (inactive) | 13.1 µM (inactive) | 12.6 µM (inactive) |  | > 100 µM (inactive) | 19.5 µM (inactive) |
| N#Cc1nc(C2OC(COC(=O)c3ccccc3)C(OC(=O)c3ccccc3)C2OC(=O)c2ccccc2)oc1N (stereo not given) | 9.16 µM (inactive) | 63.5 µM (inactive) | 38.7 µM (inactive) | > 100 µM (inactive) | 19.1 µM (inactive) |  | 12 µM (inactive) | 46.1 µM (inactive) | 3.18 µM (inactive) | 48.2 µM (inactive) | > 100 µM (inactive) | 16.5 µM (inactive) | > 100 µM (inactive) | 33.7 µM (inactive) | 5.33 µM (inactive) |  | 39.2 µM (inactive) | 14.7 µM (inactive) | 2.1 µM (inactive) |  |
| C[N+](C)([O-])Cc1cccc(NC(=O)c2ccc(C(=O)Nc3cccc(C[N+](C)(C)[O-])c3)cc2)c1 | > 100 µM (inactive) | > 100 µM (inactive) | > 100 µM (inactive) | > 100 µM (inactive) | > 100 µM (inactive) |  | > 100 µM (inactive) | > 100 µM (inactive) | > 100 µM (inactive) | > 100 µM (inactive) |  | > 100 µM (inactive) | > 100 µM (inactive) | > 100 µM (inactive) | > 100 µM (inactive) | > 100 µM (inactive) | > 100 µM (inactive) | > 100 µM (inactive) | > 100 µM (inactive) |  |
| CN1N(c2ccccc2)C(=O)C2=NC=C(C#N)C(=N)C21C (stereo not given) |  | > 100 µM (inactive) | > 100 µM (inactive) | > 100 µM (inactive) | > 100 µM (inactive) | > 100 µM (inactive) | > 100 µM (inactive) | > 100 µM (inactive) | > 100 µM (inactive) | > 100 µM (inactive) | > 100 µM (inactive) | > 100 µM (inactive) | > 100 µM (inactive) | 97.7 µM (inactive) | > 100 µM (inactive) | > 100 µM (inactive) | > 100 µM (inactive) | > 100 µM (inactive) | > 100 µM (inactive) |  |
| O=C1/C(=C/c2ccc(Cl)cc2)CSC/C1=C\c1ccc(Cl)cc1 | 1.97 µM (inactive) | 3.18 µM (inactive) | 1.51 µM (inactive) | 4.84 µM (inactive) | 2.9 µM (inactive) |  | 1.92 µM (inactive) | 3.54 µM (inactive) | 2.68 µM (inactive) | 3.39 µM (inactive) |  | 1.76 µM (inactive) | 5.32 µM (inactive) | 3.8 µM (inactive) | 4.99 µM (inactive) | 2.72 µM (inactive) | 1.71 µM (inactive) | 1.35 µM (inactive) | 0.798 µM (active) |  |
| CCN(CC)c1cccc2c1C1(O)CCC3(CC21)OCCCCO3 (stereo not given) | 33.3 µM (inactive) | > 100 µM (inactive) |  | 18 µM (inactive) | > 100 µM (inactive) |  | > 100 µM (inactive) | 44.9 µM (inactive) | 90.4 µM (inactive) | 74.1 µM (inactive) | 56.2 µM (inactive) | 49.3 µM (inactive) | 71.9 µM (inactive) | 91.8 µM (inactive) | > 100 µM (inactive) |  | 28.8 µM (inactive) | 15.3 µM (inactive) | 77.6 µM (inactive) |  |
| COc1cc(C(=O)NO)ccc1O | > 100 µM (inactive) | > 100 µM (inactive) | > 100 µM (inactive) | > 100 µM (inactive) | > 100 µM (inactive) |  | > 100 µM (inactive) | > 100 µM (inactive) | > 100 µM (inactive) | > 100 µM (inactive) | > 100 µM (inactive) | > 100 µM (inactive) | > 100 µM (inactive) | > 100 µM (inactive) | > 100 µM (inactive) |  | > 100 µM (inactive) | > 100 µM (inactive) | > 100 µM (inactive) |  |
| O=C1/C(=C/c2cccc(Br)c2)CSC/C1=C\c1cccc(Br)c1 | 2.29 µM (inactive) | 5.69 µM (inactive) | 1.65 µM (inactive) | 2.88 µM (inactive) | 3.66 µM (inactive) |  | 2.04 µM (inactive) | 1.9 µM (inactive) | 1.4 µM (inactive) | 2.25 µM (inactive) |  | 1.78 µM (inactive) | 5.79 µM (inactive) | 2.87 µM (inactive) | 1.87 µM (inactive) | 3.17 µM (inactive) | 2.24 µM (inactive) | 1.79 µM (inactive) | 0.537 µM (active) |  |
| N#CCc1ccc(C(C#N)/C(CCCC(=O)Nc2cccc([N+](=O)[O-])c2)=N\NC(=O)NN)cc1 (stereo not given) | > 100 µM (inactive) | > 100 µM (inactive) | > 100 µM (inactive) | > 100 µM (inactive) | > 100 µM (inactive) |  | > 100 µM (inactive) | > 100 µM (inactive) | > 100 µM (inactive) | > 100 µM (inactive) | > 100 µM (inactive) | > 100 µM (inactive) | > 100 µM (inactive) | > 100 µM (inactive) | > 100 µM (inactive) |  | > 100 µM (inactive) | > 100 µM (inactive) | > 100 µM (inactive) |  |
| Oc1cc(O)cc(-c2nc3cc(F)ccc3s2)c1 | 21.4 µM (inactive) | 30.3 µM (inactive) | 21.1 µM (inactive) | 23.7 µM (inactive) | 26.4 µM (inactive) | 30.5 µM (inactive) | 24 µM (inactive) | 22.6 µM (inactive) | 27.5 µM (inactive) | 29.4 µM (inactive) | 18.5 µM (inactive) | 24.5 µM (inactive) | 25.8 µM (inactive) | 24.7 µM (inactive) | 18.7 µM (inactive) | 20.3 µM (inactive) | 17.8 µM (inactive) | 22.7 µM (inactive) | 18.5 µM (inactive) |  |
| C=C[C@]1(C)CCC2=C(CCC3C2(C)CCC[C@]3(C)CO)C1 (stereo not given in full) | 24.1 µM (inactive) | > 100 µM (inactive) | 76.9 µM (inactive) | > 100 µM (inactive) | 50.4 µM (inactive) |  | 74 µM (inactive) | 60.5 µM (inactive) | 33 µM (inactive) | 20.2 µM (inactive) | > 100 µM (inactive) | 35.6 µM (inactive) | > 100 µM (inactive) | 69.2 µM (inactive) | 23 µM (inactive) |  | 43.6 µM (inactive) | 25.8 µM (inactive) | 27.2 µM (inactive) |  |
| Nc1ccn(C2OC(COP(=O)(O)O)C(O)C2O)c(=O)n1 (stereo not given) | 11.4 µM (inactive) | > 100 µM (inactive) | 10.9 µM (inactive) | 23.8 µM (inactive) | 8.83 µM (inactive) | 14.5 µM (inactive) | 6.98 µM (inactive) | 2.47 µM (inactive) | < 0.01 µM (active) | 7.89 µM (inactive) | 26.8 µM (inactive) | 1.8 µM (inactive) | 42.1 µM (inactive) | 1.21 µM (inactive) | 20.2 µM (inactive) | 1.31 µM (inactive) | 33 µM (inactive) | 11.1 µM (inactive) | > 100 µM (inactive) |  |
| COC(=O)C(Cc1ccc(O)cc1)NC(=O)C(CC(=O)OCc1ccccc1)NC(=O)OCc1ccccc1 (stereo not given) (Cbz-Asp(OBn)-Tyr-OMe; configuration not given here) | 17.1 µM (inactive) | 18.2 µM (inactive) |  | 18.3 µM (inactive) | 23.6 µM (inactive) |  | 22.9 µM (inactive) | 20.5 µM (inactive) | 53.2 µM (inactive) | 21 µM (inactive) | 20.6 µM (inactive) | 19.3 µM (inactive) |  | 20.1 µM (inactive) |  | > 10 µM (inactive) |  | 14 µM (inactive) | 24.9 µM (inactive) | 24.9 µM (inactive) |
